# Patent US10421718B2, “EBNA1 inhibitors and their method of use” (priority 2013, dated 2019)
# Counter-ions that a name gives are not always drawn.
# Molecular target: T1, His-EBNA1 (DNA binding domain of EBNA1, amino acids 459-607) (Epstein-Barr virus, UniProt P03211)
# T1 construct: made in house; host or cells: E. coli
# Experiment: Inhibition of 5′-biotin-oPL4624 binding to His-EBNA1 using Alpha Screen technology
# Conditions: Alpha Screen Activity (IC50, inhibition of 5′-biotin-oPL4624 binding to His-EBNA1), 15 nM His-EBNA1, 0.2 nM bt-oPL4624, 2 hr room temperature
# Experimental: Inhibition of 5′-biotin-oPL4624 binding to His-EBNA1 using Alpha Screen technology: Assays were performed using the DNA binding domain of EBNA1 (amino acids 459-607), which was His-tagged (His-EBNA1) and the self-complementary biotinylated (bt) oligonucleotide with the sequence 5′-bt-[…]-ATGCTACCC-3′ (bt-oPL4624). The protein was expressed in E. coli and purified according to Barwell, et al. (Barwell J A, Bochkarev A, Pfuetzner R A, Tong H, Yang D S, Frappier L, Edwards A M. (1995) Overexpression, purification, and crystallization of the DNA binding and dimerization domains of the Epstein-Barr virus nuclear antigen 1. J Biol Chem. 270: 20556-9.). The bt-oPL4624 oligonucleotide was purchased from Integrated DNA Technologies, Inc (IDT). AlphaScreen donor, acceptor beads and white, opaque 384-well assay plates were purchased from PerkinElmer, Inc.
# Assays contained 15 nM His-EBNA1, 0.2 nM bt-oPL4624, 5 μg/mL AlphaScreen streptavidin donor beads and nickel chelate acceptor beads, and a series of concentrations of test compound ranging from 3.2 nM to 100 μM in a total volume of 40 μL assay buffer (25 mM Tris, pH 7.2, 160 mM NaCl, 1 mM MgCl2). His-EBNA1 (30 nM) and bt-oPL4624 (0.4 nM) were preincubated with 10 μg/mL nickel chelate AlphaScreen acceptor bead, or 10 μg/mL streptavidin AlphaScreen donor bead, respectively, for 30 minutes at room temperature in assay buffer. Twenty microliters of His-EBNA1/acceptor bead mix and bt-oPL4624/donor bead mix were transferred to assay plates containing […] of 1:3 serial dilutions of test compounds previously prepared in DMSO at concentrations ranging from 0.32 μM to 10 mM. Nonspecific binding was determined with 5 μg/mL AlphaScreen acceptor bead in the absence of His-EBNA1. After 2 hr incubation at room temperature, the AlphaScreen signal was measured on the Envision plate reader (PerkinElmer, Inc.) at 680 nm excitation and 570 nm emission. Inhibition values at each concentration of test compound were determined by setting 100% equal to raw data values in the absence of EBNA1 and 0% equal to the raw data values in the presence of EBNA1. Nonlinear regression fits of the inhibition values to a one-site dose-response equation were performed using GraphPad Prism.
# T1 sequence (P03211 459-607): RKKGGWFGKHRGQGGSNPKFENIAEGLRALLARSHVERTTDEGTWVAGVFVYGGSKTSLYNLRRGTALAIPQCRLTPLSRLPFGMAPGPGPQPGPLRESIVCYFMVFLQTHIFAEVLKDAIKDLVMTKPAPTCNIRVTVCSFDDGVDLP
row,Compound,IC50
1,"COc1cccc(C#Cc2cccc(C(=O)O)c2-n2c(C)ccc2C)c1 [Entry 200, 2-(2,5-dimethyl-pyrrol-1-yl)-3-(3-methoxy-phenylethynyl)-benzoic acid]",1 to 10 µM
2,"Cn1cc(C#Cc2cccc(C(=O)O)c2-n2cccc2)cn1 [Entry 24, 3-[2-(1-methyl-1H-pyrazol-4-yl)ethynyl]-2-(1H-pyrrol-1-yl)benzoic acid]",1 to 10 µM
3,"O=C(O)c1cccc(C#Cc2cccc(O)c2)c1-c1ccccc1Oc1ccccc1 [Entry 275, 3-[2-(3-hydroxyphenyl)ethynyl]-2-(2-phenoxyphenyl)benzoic acid]",10 to 100 µM
4,"O=C(O)c1cccc(CCc2ccccc2)c1N1CCCC1 [Entry 148, 3-(2-phenylethyl)-2-(pyrrolidin-1-yl)benzoic acid]",10 to 100 µM
5,Nc1c(C#Cc2cccc(O)c2)cccc1C(=O)O [Entry 83],1 to 10 µM
6,"NC(=O)c1cc(C#Cc2cccc(C(=O)O)c2)cc2[nH]ccc12 [Entry 179, 3-(4-carbamoyl-1H-indol-6-ylethynyl)-benzoic acid]",1 to 10 µM
7,"O=C(O)c1cccc(C#Cc2ccncc2)c1-n1ccnc1 [Entry 292, 2-imidazol-1-yl-3-pyridin-4-ylethynyl-benzoic acid]",100 to 1000 µM
8,"O=C(O)c1cccc(C#Cc2ccccc2)c1-c1ccc2c(c1)NCC2 [Entry 237, 2-(indolin-6-yl)-3-(phenylethynyl)benzoic acid]",10 to 100 µM
9,"CN(C)S(=O)(=O)NC(=O)c1cccc(C#Cc2ccccc2)c1-n1cccc1 [Entry 113, N-(Dimethylsulfamoyl)-3-(2-phenylethynyl)-2-(1H-pyrrol-1-yl)benzamide]",1 to 10 µM
10,"O=C(O)c1cncc(C#Cc2ccccc2)c1-n1cccc1 [Entry 52, 5-(2-phenylethynyl)-4-(1H-pyrrol-1-yl)pyridine-3-carboxylic acid]",10 to 100 µM
11,"O=C(O)c1cccc(C#Cc2cnc3[nH]ccc3c2)c1-n1cccc1 [Entry 14, 2-(1H-pyrrol-1-yl)-3-(2-{1H-pyrrolo[2,3-b]pyridin-5-yl}ethynyl)benzoic acid]",1 to 10 µM
12,"O=C(O)c1cccc(C#Cc2ccccc2CO)c1F [Entry 88, 2-fluoro-3-{2-[2-(hydroxymethyl)phenyl]ethynyl}benzoic acid]",1 to 10 µM
13,"O=C(O)c1cccc(C#CCCc2ccccc2)c1-n1cccc1 [Entry 65, 3-(4-phenylbut-1-yn-1-yl)-2-(1H-pyrrol-1-yl)benzoic acid]",< 1 µM
14,"Cc1nc(C#Cc2cccc(C(=O)O)c2-n2cccc2)cn1C [Entry 25, 3-[2-(1,2-dimethyl-1H-imidazol-4-yl)ethynyl]-2-(1H-pyrrol-1-yl)benzoic acid]",10 to 100 µM
15,"COc1cc(O)cc(-c2c(C#Cc3ccncc3)cccc2C(=O)O)c1 [Entry 186, 5′-hydroxy-3′-methoxy-6-pyridin-4-ylethynyl-biphenyl-2-carboxylic acid]",10 to 100 µM
16,"CN(C)c1ccc(-c2c(C#Cc3ccccc3)cccc2C(=O)O)cn1 [Entry 127, 2-[6-(dimethylamino)pyridin-3-yl]-3-(2-phenylethynyl)benzoic acid]",10 to 100 µM
17,"O=C(O)c1cccc(C#Cc2cccc(O)c2)c1-c1ccc2cc[nH]c2c1 [Entry 266, 3-[2-(3-hydroxyphenyl)ethynyl]-2-(1H-indol-6-yl)benzoic acid]",< 1 µM
18,"O=C(O)c1cccc(C#Cc2ccccc2)c1N1CCC(C(=O)O)C1 (stereo not shown) [Entry 104, 1-(2-carboxy-6-(phenylethynyl)phenyl)pyrrolidine-3-carboxylic acid]",10 to 100 µM
19,"O=C(O)c1cccc(C#Cc2ccccc2)c1-c1ccc2c(c1)OCO2 [Entry 202, 2-benzo[1,3]dioxol-5-yl-3-phenylethynyl-benzoic acid]",10 to 100 µM
20,"NC(=O)c1cccc(C#Cc2cccc(C(=O)O)c2)c1 [Entry 180, 3-(3-carbamoyl-phenylethynyl)-benzoic acid]",< 1 µM
21,"CC(C)(O)C#Cc1cccc(C(=O)O)c1-c1ccc2cc[nH]c2c1 [Entry 248, 3-(3-hydroxy-3-methylbut-1-ynyl)-2-(1H-indol-6-yl)benzoic acid]",< 1 µM
22,"NS(=O)(=O)c1cccc(C#Cc2ccccc2)c1-n1cccc1 [Entry 152, 3-Phenylethynyl-2-pyrrol-1-yl-benzenesulfonamide]",1 to 10 µM

row,Compound,IC50
1,"CN(C)C1CCN(c2c(C#Cc3ccccc3)cccc2C(=O)O)C1 (stereo not shown) [Entry 103, 2-(3-(dimethylamino)pyrrolidin-1-yl)-3-(phenylethynyl)benzoic acid]",10 to 100 µM
2,Nc1c(C#Cc2c[nH]c3ncccc23)cccc1C(=O)O [Entry 78],< 1 µM
3,"CC(=O)Nc1cccc(-c2c(C#Cc3ccccc3)cccc2C(=O)O)c1 [Entry 257, 5′-acetamido-6-(phenylethynyl)biphenyl-2-carboxylic acid]",10 to 100 µM
4,"CS(=O)(=O)Nc1ccc(C#Cc2cccc(C(=O)O)c2-c2ccc3cc[nH]c3c2)cc1 [Entry 215, 2-(1H-indol-6-yl)-3-(4-methanesulfonylamino-phenylethynyl)-benzoic acid]",1 to 10 µM
5,"Cc1ccc(C)n1-c1c(C#CC2CC2)cccc1C(=O)O [Entry 199, 3-cyclopropylethynyl-2-(2,5-dimethyl-pyrrol-1-yl)-benzoic acid]",1 to 10 µM
6,"O=C(O)c1cccc(C#Cc2cccc(O)c2)c1-n1cccc1 [Entry 57, 3-[2-(3-hydroxyphenyl)ethynyl]-2-(1H-pyrrol-1-yl)benzoic acid]",< 1 µM
7,"CN1CCOc2cc(-c3c(C#Cc4cccc(O)c4)cccc3C(=O)O)ccc21 [Entry 264, 3-[2-(3-hydroxyphenyl)ethynyl]-2-(4-methyl-3,4-dihydro-2H-1,4-benzoxazin-7-yl)benzoic acid; trifluoroacetate salt]",1 to 10 µM
8,"O=C(O)c1cccc(C#Cc2cccc(CNS(=O)(=O)C3CC3)c2)c1-n1cccc1 [Entry 165, 3-{2-[3-(cyclopropanesulfonamidomethyl)phenyl]ethynyl}-2-(1H-pyrrol-1-yl)benzoic acid]",< 1 µM
9,"O=C(O)c1cccc(C#Cc2ccccc2)c1-c1ccc2nc[nH]c2c1 [Entry 150, 2-(1H-1,3-benzodiazol-6-yl)-3-(2-phenylethynyl)benzoic acid]",10 to 100 µM
10,"O=C(O)c1cccc(C#Cc2ccccc2)c1-n1cccc1 [Entry 72, 3-(2-phenylethynyl)-2-(1H-pyrrol-1-yl)benzoic acid]",< 1 µM
11,"Cc1ccc(C)n1-c1c(C#Cc2cccc(O)c2)cccc1C(=O)O [Entry 22, 2-(2,5-dimethyl-1H-pyrrol-1-yl)-3-[2-(3-hydroxyphenyl)ethynyl]benzoic acid]",< 1 µM
12,"Nc1c(C#Cc2cccc3[nH]ccc23)cccc1C(=O)O [Entry 79, 2-amino-3-[2-(1H-indol-4-yl)ethynyl]benzoic acid]",< 1 µM
13,"O=C(O)c1cccc(C#Cc2ccncc2)c1-c1cc(O)cc(Cl)c1 [Entry 271, 2-(3-chloro-5-hydroxyphenyl)-3-[2-(pyridin-4-yl)ethynyl]benzoic acid; trifluoroacetate salt]",1 to 10 µM
14,"O=C(O)c1cccc(C#Cc2cccc3[nH]ccc23)c1-n1cccc1 [Entry 35, 3-[2-(1H-indol-4-yl)ethynyl]-2-(1H-pyrrol-1-yl)benzoic acid]",< 1 µM
15,"O=C(O)c1cccc(C#Cc2ccccc2)c1-c1ccc2ccccc2c1 [Entry 135, 2-(naphthalen-2-yl)-3-(2-phenylethynyl)benzoic acid]",1 to 10 µM
16,"NC1(C#Cc2cccc(C(=O)O)c2-n2cccc2)CCCCC1 [Entry 53, 3-[2-(1-aminocyclohexyl)ethynyl]-2-(1H-pyrrol-1-yl)benzoic acid trifluoroacetic acid]",< 1 µM
17,"O=C(O)c1cccc(C#Cc2cc(F)cc(F)c2)c1-n1cccc1 [Entry 45, 3-[2-(3,5-difluorophenyl)ethynyl]-2-(1H-pyrrol-1-yl)benzoic acid]",1 to 10 µM
18,"COc1ccccc1-c1c(C#Cc2ccccc2)cccc1C(=O)O [Entry 121, 2-(2-methoxyphenyl)-3-(2-phenylethynyl)benzoic acid]",10 to 100 µM
19,"O=C(O)c1cccc(C#Cc2cccnc2)c1 [Entry 91, 3-[2-(pyridin-3-yl)ethynyl]benzoic acid]",1 to 10 µM
20,"CN1CCN(C(=O)c2cccc(C#Cc3cccc(C(=O)O)c3)c2)CC1 [Entry 289, 3-[3-(4-methyl-piperazine-1-carbonyl)-phenylethynyl]-benzoic acid]",100 to 1000 µM
21,"COc1ccc(-c2c(C#Cc3ccccc3)cccc2C(=O)O)cc1 [Entry 119, 2-(4-methoxyphenyl)-3-(2-phenylethynyl)benzoic acid]",1 to 10 µM
